Results taken from patent US20240398828A1, “HETERO-ATOM CONTAINING COMPOUNDS AND USES THEREOF” (Kumquat Biosciences Inc., priority 2021, published 2024).

How the values were obtained:
[1] = target: T1, PTPN2 (i.e., TC-PTP) (Homo sapiens, UniProt P17706); assay: Phosphatase activity assay (DiFMUP substrate), PTPN2; type: biochemical; conditions: compounds binned ≤1 uM or >1 uM
T1 sequence (P17706 1-415): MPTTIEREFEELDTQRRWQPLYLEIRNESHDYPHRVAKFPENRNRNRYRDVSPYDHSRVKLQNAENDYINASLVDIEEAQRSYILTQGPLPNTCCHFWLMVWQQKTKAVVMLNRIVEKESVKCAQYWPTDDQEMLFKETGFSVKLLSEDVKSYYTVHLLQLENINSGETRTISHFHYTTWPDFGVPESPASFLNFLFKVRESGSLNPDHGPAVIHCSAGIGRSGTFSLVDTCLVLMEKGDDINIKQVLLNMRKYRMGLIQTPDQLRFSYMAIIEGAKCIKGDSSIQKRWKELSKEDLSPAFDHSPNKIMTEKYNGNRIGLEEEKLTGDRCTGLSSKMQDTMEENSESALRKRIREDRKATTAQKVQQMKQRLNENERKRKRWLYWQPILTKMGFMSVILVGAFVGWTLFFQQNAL
Method in brief: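 First, serially diluted inhibitor is mixed about 2 minutes with enzyme in pH 7.5 HEPES/NaCl/EDTA/DTT/Tween-20 buffer. Next, DiFMUP is added at the enzyme's Km, approximately 45 μM for PTPN2. Finally, DiFMU appearance is read continuously at room temperature and rates are fitted for IC50.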

[2] = target: T2, PTPN1 (i.e., PTP1B) (Homo sapiens, UniProt P18031); assay: Phosphatase activity assay (DiFMUP substrate), PTP1B; type: biochemical; conditions: compounds binned ≤1 uM or >1 uM
T2 sequence (P18031 1-435): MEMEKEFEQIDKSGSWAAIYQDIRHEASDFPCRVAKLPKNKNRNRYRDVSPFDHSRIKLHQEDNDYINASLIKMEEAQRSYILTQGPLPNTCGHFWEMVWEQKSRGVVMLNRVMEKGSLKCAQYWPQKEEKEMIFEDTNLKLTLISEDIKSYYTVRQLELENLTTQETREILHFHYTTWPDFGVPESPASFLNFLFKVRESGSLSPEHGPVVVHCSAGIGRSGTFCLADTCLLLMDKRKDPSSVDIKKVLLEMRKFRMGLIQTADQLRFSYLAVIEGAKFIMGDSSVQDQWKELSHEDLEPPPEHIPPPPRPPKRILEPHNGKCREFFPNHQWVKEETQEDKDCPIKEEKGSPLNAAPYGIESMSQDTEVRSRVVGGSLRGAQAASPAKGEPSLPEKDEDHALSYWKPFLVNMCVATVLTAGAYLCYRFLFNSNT
Method in brief: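 RT, HEPES pH 7.5 buffer with DTT/Tween-20. 10-point inhibitor series premixed ~2 min with enzyme (PTPN2 0.025 ng/ul). Start with DiFMUP at enzyme Km (~45 μM for PTPN2). Read DiFMU ex360/em450 continuously 15–30 min; initial rate vs concentration, 4-parameter fit → IC50.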

| SMILES | IC50 [1] [µM] | IC50 [2] [µM] |
| --- | --- | --- |
| O=C1CN(c2c(O)ccc(-c3ccc(NS(=O)(=O)CC4CC4)cc3)c2F)S(=O)(=O)N1 [Compound 231, 1-cyclopropyl-N-(3′-(1,1-dioxido-4-oxo-1,2,5-thiadiazolidin-2-yl)-2′-fluoro-4′-hydroxy-[1,1′-biphenyl]-4-yl)methanesulfonamide] | ≤ 1 | ≤ 1 |
| O=C1CN(c2c(O)ccc(-c3cc(CCC4CC4)n[nH]3)c2F)S(=O)(=O)N1 [Compound 452, 5-(3-(3-(2-cyclopropylethyl)-1H-pyrazol-5-yl)-2-fluoro-6-hydroxyphenyl)-1,2,5-thiadiazolidin-3-one 1,1-dioxide] | ≤ 1 | ≤ 1 |
| O=C1CN(c2c(O)ccc(-c3cc(N4CC5(COC5)C4)n[nH]3)c2F)S(=O)(=O)N1 [Compound 466, 5-(3-(3-(2-oxa-6-azaspiro[3.3]heptan-6-yl)-1H-pyrazol-5-yl)-2-fluoro-6-hydroxyphenyl)-1,2,5-thiadiazolidin-3-one 1,1-dioxide] | ≤ 1 | ≤ 1 |
| O=C1CN(c2c(O)ccc(-c3cc(C#CC4CCCCC4)n[nH]3)c2F)S(=O)(=O)N1 [Compound 253, 5-(3-(3-(cyclohexylethynyl)-1H-pyrazol-5-yl)-2-fluoro-6-hydroxyphenyl)-1,2,5-thiadiazolidin-3-one 1,1-dioxide] | ≤ 1 | ≤ 1 |
| COC(=O)n1nc(C2CC2)cc1-c1ccc(O)c(N2CC(=O)NS2(=O)=O)c1F [Compound 545, methyl 3-cyclopropyl-5-(3-(1,1-dioxido-4-oxo-1,2,5-thiadiazolidin-2-yl)-2-fluoro-4-hydroxyphenyl)-1H-pyrazole-1-carboxylate] | ≤ 1 | ≤ 1 |
| CN(C)c1cc(-c2ccc(O)c(N3CC(=O)NS3(=O)=O)c2F)[nH]n1 [Compound 300, 5-(3-(3-(dimethylamino)-1H-pyrazol-5-yl)-2-fluoro-6-hydroxyphenyl)-1,2,5-thiadiazolidin-3-one 1,1-dioxide] | ≤ 1 | ≤ 1 |
| CN1CC2(CCC(n3cc(-c4ccc(O)c(N5CC(=O)NS5(=O)=O)c4F)cn3)CC2)C1 [Compound 271, 5-(2-fluoro-6-hydroxy-3-(1-(2-methyl-2-azaspiro[3.5]nonan-7-yl)-1H-pyrazol-4-yl)phenyl)-1,2,5-thiadiazolidin-3-one 1,1-dioxide] | ≤ 1 | ≤ 1 |
| O=C1CN(c2c(O)ccc(-c3cnn(C4CCCCCC4)c3)c2F)S(=O)(=O)N1 [Compound 360, 5-(3-(1-cycloheptyl-1H-pyrazol-4-yl)-2-fluoro-6-hydroxyphenyl)-1,2,5-thiadiazolidin-3-one 1,1-dioxide] | ≤ 1 | ≤ 1 |
| O=C1CN(c2c(O)ccc(C3=CCN(S(=O)(=O)CCC(F)(F)F)C3)c2F)S(=O)(=O)N1 [Compound 251, 5-(2-fluoro-6-hydroxy-3-(1-((3,3,3-trifluoropropyl)sulfonyl)-2,5-dihydro-1H-pyrrol-3-yl)phenyl)-1,2,5-thiadiazolidin-3-one 1,1-dioxide] | ≤ 1 | ≤ 1 |
| N#C[C@H]1CC[C@@H](n2cc(-c3ccc(O)c(N4CC(=O)NS4(=O)=O)c3F)cn2)CC1 [Compound 280, (1s,4s)-4-(4-(3-(1,1-dioxido-4-oxo-1,2,5-thiadiazolidin-2-yl)-2-fluoro-4-hydroxyphenyl)-1H-pyrazol-1-yl)cyclohexane-1-carbonitrile] | ≤ 1 | ≤ 1 |
| N#Cc1ccc(Cn2cc(-c3ccc(O)c(N4CC(=O)NS4(=O)=O)c3F)cn2)cc1F [Compound 157, 4-((4-(3-(1,1-dioxido-4-oxo-1,2,5-thiadiazolidin-2-yl)-2-fluoro-4-hydroxyphenyl)-1H-pyrazol-1-yl)methyl)-2-fluorobenzonitrile] | ≤ 1 | ≤ 1 |
| O=C1CN(c2c(O)ccc(-c3cn(Cc4cccnc4)cn3)c2F)S(=O)(=O)N1 [Compound 457, 5-(2-fluoro-6-hydroxy-3-(1-(pyridin-3-ylmethyl)-1H-imidazol-4-yl)phenyl)-1,2,5-thiadiazolidin-3-one 1,1-dioxide] | ≤ 1 | ≤ 1 |
| NC1CC=C(c2ccc(O)c(N3CC(=O)NS3(=O)=O)c2F)C1 (centres unmarked) [Compound 330, 5-(3-(4-aminocyclopent-1-en-1-yl)-2-fluoro-6-hydroxyphenyl)-1,2,5-thiadiazolidin-3-one 1,1-dioxide] | ≤ 1 | ≤ 1 |
| O=C1CN(c2c(O)ccc(-c3cc(-c4ccccc4)no3)c2F)S(=O)(=O)N1 [Compound 401, 5-(2-fluoro-6-hydroxy-3-(3-phenylisoxazol-5-yl)phenyl)-1,2,5-thiadiazolidin-3-one 1,1-dioxide] | ≤ 1 | ≤ 1 |
| O=C1CN(c2c(O)ccc(-c3cn(Cc4ccccc4)nn3)c2F)S(=O)(=O)N1 [Compound 205, 5-(3-(1-benzyl-1H-1,2,3-triazol-4-yl)-2-fluoro-6-hydroxyphenyl)-1,2,5-thiadiazolidin-3-one 1,1-dioxide] | ≤ 1 | ≤ 1 |
| CC(C)CCN1CC=C(c2ccc(O)c(N3CC(=O)NS3(=O)=O)c2F)C1 [Compound 544, 5-(2-fluoro-6-hydroxy-3-(1-isopentyl-2,5-dihydro-1H-pyrrol-3-yl)phenyl)-1,2,5-thiadiazolidin-3-one 1,1-dioxide] | ≤ 1 | ≤ 1 |
| N#Cc1cc(Cn2cc(-c3ccc(O)c(N4CC(=O)NS4(=O)=O)c3F)cn2)ccc1F [Compound 169, 5-((4-(3-(1,1-dioxido-4-oxo-1,2,5-thiadiazolidin-2-yl)-2-fluoro-4-hydroxyphenyl)-1H-pyrazol-1-yl)methyl)-2-fluorobenzonitrile] | ≤ 1 | ≤ 1 |
| O=C1CN(c2c(O)ccc(-c3cc(C4CC4)no3)c2F)S(=O)(=O)N1 [Compound 256, 5-(3-(3-cyclopropylisoxazol-5-yl)-2-fluoro-6-hydroxyphenyl)-1,2,5-thiadiazolidin-3-one 1,1-dioxide] | ≤ 1 | ≤ 1 |
| O=C1CN(c2c(O)ccc(-c3cc(C4CC4(F)F)nn3C(F)F)c2F)S(=O)(=O)N1 (centres unmarked) [Compound 538, 5-(3-(3-(2,2-difluorocyclopropyl)-1-(difluoromethyl)-1H-pyrazol-5-yl)-2-fluoro-6-hydroxyphenyl)-1,2,5-thiadiazolidin-3-one 1,1-dioxide] | ≤ 1 | ≤ 1 |
| CC(O)c1cc(-c2ccc(O)c(N3CC(=O)NS3(=O)=O)c2F)[nH]n1 (centres unmarked) [Compound 462, 5-(2-fluoro-6-hydroxy-3-(3-(1-hydroxyethyl)-1H-pyrazol-5-yl)phenyl)-1,2,5-thiadiazolidin-3-one 1,1-dioxide] | ≤ 1 | ≤ 1 |
| O=C1CN(c2c(O)ccc(-c3cn(-c4cccc(C(F)(F)F)c4)cn3)c2F)S(=O)(=O)N1 [Compound 325, 5-(2-fluoro-6-hydroxy-3-(1-(3-(trifluoromethyl)phenyl)-1H-imidazol-4-yl)phenyl)-1,2,5-thiadiazolidin-3-one 1,1-dioxide] | ≤ 1 | ≤ 1 |
| CC(C)CCNC1CCCN(c2cc(O)c(N3CC(=O)NS3(=O)=O)c(F)c2)C1 (centres unmarked) [Compound 104, 5-(2-fluoro-6-hydroxy-4-(3-(isopentylamino)piperidin-1-yl)phenyl)-1,2,5-thiadiazolidin-3-one 1,1-dioxide] | ≤ 1 | ≤ 1 |
